System: HBV in HepAD38 cells
Settings: Hepatitis B virus, HePAD38, 144 h, read-out: Cell activity

SMILES | EC50
CN1C(=O)c2c3c(nn2CCC12CC2)CCN(C(=O)Nc1ccc(F)c(Cl)c1)C3 [Example 11, N-(3-chloro-4-fluorophenyl)-13′-methyl-14′-oxo-4′,8′,9′,13′-tetraazaspiro[cyclopropane-1,12′-tricyclo[7.5.0.0^2,^7]tetradecane]-1′,7′-diene-4′-carboxamide] | < 1 µM
CN(C(=O)c1cnn2c1CN(C(=O)Nc1ccc(F)c(Cl)c1)CC2)C1(c2cc(C(=O)O)on2)CC1 [Example 27, 3-(1-{N-methyl-5-[(3-chloro-4-fluorophenyl)carbamoyl]-4H,5H,6H,7H-pyrazolo[1,5-a]pyrazine-3-amido}cyclopropyl)-1,2-oxazole-5-carboxylic acid #] | < 1 µM
CN(C(=O)c1[nH]nc2c1CN(C(=O)Nc1ccc(F)c(Cl)c1)CC2)C1(c2ccc(C(=O)O)cc2)CC1 [Example 13, 4-(1-{N-methyl-5-[(3-chloro-4-fluorophenyl)carbamoyl]-2H,4H,5H,6H,7H-pyrazolo[4,3-c]pyridine-3-amido}cyclopropyl)benzoic acid] | < 100 µM
CN1C(=O)c2c3c(nn2CC12CC2)CCN(C(=O)Nc1ccc(F)c(F)c1)C3 [Example 10, N-(3,4-difluorophenyl)-4′-methyl-3′-oxo-4′,7′,8′,12′-tetraazaspiro[cyclopropane-1,5′-tricyclo[7.4.0.0^2,^7]tridecane]-1′,8′-diene-12′-carboxamide] | < 1 µM
O=C(O)c1cnc(C2(NC(=O)c3cnn4c3CN(C(=O)Nc3ccc(F)c(Cl)c3)CC4)CC2)nc1 [Example 5, 2-(1-{5-[(3-chloro-4-fluorophenyl)carbamoyl]-4H,5H,6H,7H-pyrazolo[1,5-a]pyrazine-3-amido}cyclopropyl)pyrimidine-5-carboxylic acid] | < 1 µM
CN1C(=O)c2c3c(nn2CC12CC2)CCN(C(=O)Nc1ccc(F)c(Cl)c1)C3 [Example 4, N-(3-chloro-4-fluorophenyl)-4′-methyl-3′-oxo-4′,7′,8′,12′-tetraazaspiro[cyclopropane-1,5′-tricyclo[7.4.0.0^2,7]tridecane]-1′,8′-diene-12′-carboxamide] | < 1 µM
CCN1C(=O)c2c3c(nn2CCC12CC2)CCN(C(=O)Nc1ccc(F)c(Cl)c1)C3 [Example 28, N-(3-chloro-4-fluorophenyl)-13′-ethyl-14′-oxo-4′,8′,9′,13′-tetraazaspiro[cyclopropane-1,12′-tricyclo[7.5.0.0^2,^7]tetradecane]-1′,7′-diene-4′-carboxamide] | < 1 µM
O=C(O)c1ccc(C2(NC(=O)c3cnn4c3CN(C(=O)Nc3ccc(F)c(Cl)c3)CC4)CC2)cc1 [Example 17, 4-(1-{5-[(3-chloro-4-fluorophenyl)carbamoyl]-4H,5H,6H,7H-pyrazolo[1,5-a]pyrazine-3-amido}cyclopropyl)benzoic acid] | < 100 µM
CC1Cn2ncc(C(=O)N(C)C3(c4ccc(C(=O)O)cc4)CC3)c2CN1C(=O)Nc1ccc(F)c(Cl)c1 (centres unmarked) [Example 9, 4-(1-{N-methyl-5-[(3-chloro-4-fluorophenyl)carbamoyl]-6-methyl-4H,5H,6H,7H-pyrazolo[1,5-a]pyrazine-3-amido}cyclopropyl)benzoic acid] | < 1 µM
O=C(O)c1cccc(C2(NC(=O)c3cnn4c3CN(C(=O)Nc3ccc(F)c(Cl)c3)CC4)CC2)c1 [Example 18, 3-(1-{5-[(3-chloro-4-fluorophenyl)carbamoyl]-4H,5H,6H,7H-pyrazolo[1,5-a]pyrazine-3-amido}cyclopropyl)benzoic acid] | 1 to 10 µM
CC1Cn2cnc(C(=O)N(C)C3(c4cccc(C(=O)O)c4)CC3)c2CN1C(=O)Nc1ccc(F)c(Cl)c1 (centres unmarked) [Example 14, 3-(1-{N-methyl7-[(3-chloro-4-fluorophenyl)carbamoyl]-6-methyl-5H,6H,7H,8H-imidazo[1,5-a]pyrazine-1-amido}cyclopropyl)benzoic acid] | < 1 µM
COCC1(N(C)C(=O)c2noc3c2CN(C(=O)Nc2ccc(F)c(Cl)c2)CC3)CC1 [Example 3, N5-(3-chloro-4-fluorophenyl)-N3-[1-(methoxymethyl)cyclopropyl]-N3-methyl-4H,5H,6H,7H-[1,2]oxazolo[4,5-c]pyridine-3,5-dicarboxamide] | < 1 µM
CN(C(=O)c1cnn2c1CN(C(=O)Nc1ccc(F)c(Cl)c1)CC2)C1(c2ccccc2C(=O)O)CC1 [Example 29, 2-(1-{N-methyl-5-[(3-chloro-4-fluorophenyl)carbamoyl]-4H,5H,6H,7H-pyrazolo[1,5-a]pyrazine-3-amido}cyclopropyl)benzoic acid] | < 1 µM
CN(C(=O)c1[nH]nc2c1CN(C(=O)Nc1ccc(F)c(Cl)c1)CC2)C1(c2ncc(C(=O)O)cn2)CC1 [Example 12, 2-(1-{N-methyl-5-[(3-chloro-4-fluorophenyl)carbamoyl]-2H,4H,5H,6H,7H-pyrazolo[4,3-c]pyridine-3-amido}cyclopropyl)pyrimidine-5-carboxylic acid] | 1 to 10 µM
O=C(O)c1ccc(C2(NC(=O)c3cnn4c3CN(C(=O)Nc3ccc(F)c(Cl)c3)CC4)CC2)nc1 [Example 6, 6-(1-{5-[(3-chloro-4-fluorophenyl)carbamoyl]-4H,5H,6H,7H-pyrazolo[1,5-a]pyrazine-3-amido}cyclopropyl)pyridine-3-carboxylic acid] | < 1 µM
CN(C(=O)c1cnn2c1CN(C(=O)Nc1ccc(F)c(Cl)c1)CC2)C1(c2ccc(C(=O)O)cc2)CC1 [Example 2, 4-(1-{N-methyl-5-[(3-chloro-4-fluorophenyl)carbamoyl]-4H,5H,6H,7H-pyrazolo[1,5-a]pyrazine-3-amido}cyclopropyl)benzoic acid] | < 1 µM
C[C@@H](NC(=O)c1noc2c1CN(C(=O)Nc1ccc(F)c(Cl)c1)CC2)C(F)(F)F [Example 8, N5-(3-chloro-4-fluorophenyl)-N3-[(2R)-1,1,1-trifluoropropan-2-yl]-4H,5H,6H,7H-[1,2]oxazolo[4,5-c]pyridine-3,5-dicarboxamide] | < 1 µM
CN(C(=O)c1cnn2c1CN(C(=O)Nc1ccc(F)c(Cl)c1)CC2)C1(c2cccc(C(=O)O)c2)CC1 [Example 1, 3-(1-{N-methyl-5-[(3-chloro-4-fluorophenyl)carbamoyl]-4H,5H,6H,7H-pyrazolo[1,5-a]pyrazine-3-amido}cyclopropyl)benzoic acid] | < 1 µM
CN(C(=O)c1cnn2c1CN(C(=O)Nc1ccc(F)c(Cl)c1)CC2)C1(Cc2ccc(C(=O)O)cc2)CC1 [Example 16, 4-[(1-{N-methyl-5-[(3-chloro-4-fluorophenyl)carbamoyl]-4H,5H,6H,7H-pyrazolo[1,5-a]pyrazine-3-amido}cyclopropyl)methyl]benzoic acid] | < 1 µM
CN(C(=O)c1cnn2c1CN(C(=O)Nc1ccc(F)c(Cl)c1)CC2)C1(c2nccc(C(=O)O)n2)CC1 [Example 15, 2-(1-{N-methyl-5-[(3-chloro-4-fluorophenyl)carbamoyl]-4H,5H,6H,7H-pyrazolo[1,5-a]pyrazine-3-amido}cyclopropyl)pyrimidine-4-carboxylic acid] | 1 to 10 µM
